# Reference: patent EP4635969A1, “NOVEL GLUCOCORTICOID, METHOD FOR PREPARING SAME, AND USE THEREOF” (Tianjin Pharmaceutical Biotechnology Co., Ltd., priority 2022, dated 2024)
# pEC50: −log10 of the molar value.
# Target: T1, glucocorticoid receptor (GR) (Homo sapiens, UniProt P04150)
# T1 sequence (P04150 521-777): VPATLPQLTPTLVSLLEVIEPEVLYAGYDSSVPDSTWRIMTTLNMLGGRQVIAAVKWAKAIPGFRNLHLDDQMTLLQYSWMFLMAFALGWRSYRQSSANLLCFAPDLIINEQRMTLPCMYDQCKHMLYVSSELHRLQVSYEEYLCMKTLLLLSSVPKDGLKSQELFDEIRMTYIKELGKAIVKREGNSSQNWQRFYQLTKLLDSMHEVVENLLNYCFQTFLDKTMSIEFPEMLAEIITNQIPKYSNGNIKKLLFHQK
# Test: Assay for agonist activity on glucocorticoid receptor (luciferase reporter, HEK293 cells transfected with pBIND-GR plasmid)
# Assay type: cell-based
# Conditions: HEK293 cells transfected with pBIND-GR, luciferase signal; read-out: GR agonist EC50
# Description: Pharmacological Example 1: Assay for Agonist Activity on Glucocorticoid Receptor (GR)
# The test compounds were subjected to a 4-fold serial dilution starting from an initial concentration of 10 µ M, generating a 10-point concentration gradient with duplicate wells for each concentration. The blank control consisted of 0.1 % DMSO.
# The HEK293 stable cell line […] transfected with glucocorticoid receptor (GR) (ICE Bioscience, Lot No. TYP-20220519) was cultured in Dulbecco's Modified Eagle Medium (DMEM) supplemented with 10% fetal bovine serum (FBS) and 200 µ g/ml Hygromycin B in a cell incubator containing 5% CO2 at 37 °C. The spent medium was aspirated and the cells were washed once with phosphate-buffered saline (PBS). Then, 1 mL of TrypLE™ Express solution was added, and the cells were incubated at 37 °C for approximately 2 min. When the cells detached from the bottom of the cell culture dish, approximately 5 mL of pre-warmed complete medium at 37 °C was added. The cell suspension was gently pipetted with a pipette to dissociate clumped cells. The cell suspension was transferred to a sterile centrifuge tube and centrifuged at 1000 rpm for 5 min to pellet the cells for experiments or subculture.
# HEK293 cells were digested and seeded into 6-cm culture dishes. The pBIND-GR plasmid was transfected into the HEK293 cells using a transfection reagent, resulting in HEK293 cells successfully transfected with the pBIND-GR plasmid. The cells were resuspended in phenol red-free DMEM medium containing 5% charcoal-stripped serum, counted, and then seeded into 96-well plates. The test compounds were added, and the plates were then incubated in an incubator. The luminescence signal values were measured using a multimode microplate reader following the instructions of the luciferase assay kit. The EC50 values of each test compound were calculated using the nonlinear fitting formula with GraphPad Prism 8.0 software.
row,SMILES,pEC50
1,"C[C@]12C=CC(=O)C=C1[C@@H](F)C[C@H]1[C@@H]3C[C@H]4OC(C5CCC(NC(=O)C6COC(=O)C6)CC5)O[C@@]4(C(=O)CO)[C@@]3(C)C[C@H](O)[C@@]12F (stereo partly drawn) [Compound 3, N-(4-((2S,6aS,6bR,7S,8aS,8bS,11aR,12aS,12bS)-2,6b-Difluoro-7-hydroxy-8b-(2-hydroxyacetyl)-6a,8a-dimethyl-4-oxo-2,4,6a,6b,7,8,8a,8b,11a,12,12a,12b-dodecahydro-1H-naphtho[2',1':4,5]indeno[1,2-d][1,3]dioxol-10-yl)cyclohexyl)-5-oxotetrahydrofuran-3-carboxamide]",7.75
2,"C[C@]12C=CC(=O)C=C1[C@@H](F)C[C@H]1[C@@H]3C[C@H]4OC(c5ccc(COC6COC(=O)C6)cc5)O[C@@]4(C(=O)CO)[C@@]3(C)C[C@H](O)[C@@]12F (stereo partly drawn) [Compound 10, (2S,6aS,6bR,7S,8aS,8bS,11aR,12aS,12bS)-2,6b-Difluoro-7-hydroxy-8b-(2-hydroxyacetyl)-6a,8a-dimethyl-10-(4-(((5-oxotetrahydrofuran-3-yl)oxy)methyl)phenyl)-1,2,6a,6b,7,8,8a,8b,11a,12,12a,1 2b-dodecahydro-4H-naphtho[2',1':4,5]indeno[1,2-d][1,3]dioxol-4-one]",8.58
3,"C[C@]12C=CC(=O)C=C1CC[C@H]1[C@@H]3C[C@H]4OC(c5ccc(CSC6COC(=O)C6)cc5)O[C@@]4(C(=O)CCl)[C@@]3(C)C[C@H](O)[C@@]12Cl (stereo partly drawn) [Compound 39, (6aS,6bR,7S,8aS,8bS,11aR,12aS,12bS)-6b-Chloro-8b-(2-chloroacetyl)-7-hydroxy-6a,8a-dimethyl-10-(4-(((5-oxotetrahydrofuran-3-yl)thio)methyl)phenyl)-l,2,6a,6b,7,8,8a,8b,11a,12,12a,12b-dode cahydro-4H-naphtho[2',1':4,5]indeno[1,2-d][1,3]dioxol-4-one]",8.48
4,"C[C@]12C=CC(=O)C=C1CC[C@H]1[C@@H]3C[C@H]4OC(c5ccc(C[S+]([O-])C6CCOC6=O)cc5)O[C@@]4(C(=O)CO)[C@@]3(C)C[C@H](O)[C@@]12Cl (stereo partly drawn) [Compound 57, (6aS,6bR,7S,8aS,8bS,11aR,12aS,12bS)-6b-Chloro-7-hydroxy-8b-(2-hydroxyacetyl)-6a,8a-dimethyl-10-(4-(((2-oxotetrahydrofuran-3-yl)sulfinyl)methyl)phenyl)-1,2,6a,6b,7,8,8a,8b,11a,12,12a,12b-dodecahydro-4H-naphtho[2',1':4,5]indeno[1,2-d][1,3]dioxol-4-one]",9.07
5,"C[C@]12C=CC(=O)C=C1CC[C@@H]1[C@@H]2[C@@H](O)C[C@@]2(C)[C@H]1C[C@H]1OC(c3ccc(COC4CCOC4=O)cc3)O[C@]12C(=O)CO (stereo partly drawn) [Compound 28, (6aR,6bS, 7S,8aS,8bS,11aR,12aS,12bS)-7-Hydroxy-8b-(2-hydroxyacetyl)-6a,8a-dimethyl-10-(4-(( (2-oxotetrahydrofuran-3-yl)oxy)methyl)phenyl)-1,2,6a,6b,7,8,8a,8b,11a,12,12a,12b-dodecahydro-4H-naphtho[2',1':4,5]indeno[1,2-d][1,3]dioxol-4-one]",8.37
6,"C[C@]12C=CC(=O)C=C1[C@@H](F)C[C@H]1[C@@H]3C[C@H]4OC(c5ccc(CNC6COC(=O)C6)cc5F)O[C@@]4(C(=O)CO)[C@@]3(C)C[C@H](O)[C@@]12F (stereo partly drawn) [Compound 12, (2S,6aS,6bR,7S,8aS,8bS,11aR,12aS,12bS)-2,6b-Difluoro-10-(2-fluoro-4-(((5-oxotetrahydrofuran-3-yl)amino)methyl)phenyl)-7-hydroxy-8b-(2-hydroxyacetyl)-6a,8a-dimethyl-1,2,6a,6b,7,8,8a,8b,1 1a,12,12a,12b-dodecahydro-4H-naphtho[2',1':4,5]indeno[1,2-d][1,3]dioxol-4-one]",8.39
